From ChEMBL document CHEMBL6087419, “Structural insights into tryptamine psychedelics: The role of hydroxyl indole ring site in 5-HT2A receptor activation and psychedelic-like activity” (Eur J Med Chem, 2025) come the findings set out here.

For test [1], the system named is Mus musculus. As to the kind of experiment: Psychedelic like activity in male BALB/c mouse assessed as induction of head-twitch responses at 1 mg/kg, ip measured after 30 mins by video recording analysis. Format: functional, organism-based.
Test [2] relates to Mus musculus. Briefly: Psychedelic like activity in male BALB/c mouse assessed as induction of head-twitch responses administered intraperitoneally and measured after 30 mins by video recording analysis. The format is functional. Conditions: 0.5 h, route ip.
For test [3], the system named is Mus musculus. Briefly: Psychedelic like activity in male BALB/c mouse assessed as induction of head-twitch responses at 3 to 10 mg/kg, ip measured after 30 mins by video recording analysis. Format: functional, organism-based. Particulars: dose 3-10 mg/kg.

As a reminder, the ED50 is the midpoint of the dose-response relation.

Activity calls are given as the source filed them. The rule behind the calls is not given here.

In the case of `CN(C)CCc1c[nH]c2c(O)cccc12`, the result with Mus musculus [1] was inactive.
For `CN(C)CCc1c[nH]c2cc(O)ccc12`, the outcome in the test on Mus musculus [1] was inactive.
As for `CN(C)CCc1c[nH]c2ccc(O)cc12`, the outcome in the test on Mus musculus [1] was Active.
Turning to `CN(C)CCc1c[nH]c2cccc(O)c12` [PSILOCIN], the ED50 in the test on Mus musculus [2] was 0.86 mg/kg. For the same molecule, the outcome with Mus musculus [1] was Active. For the same molecule, the result in the test on Mus musculus [3] was inactive.
